Among the data in patent US10913738B2 (BRISTOL-MYERS SQUIBB COMPANY, priority 2017, dated 2021) are IC50 values, retold here.

The subject of test [1] is MLKL phosphorylation in HT29-L23 human colorectal adenocarcinoma cells. Put plainly: MLKL Phosphorylation High-Content Assay. Format: cell-based. Conditions: Homo sapiens. In a few lines:
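Cells incubated six hours at 37° C., then phospho-MLKL (S358) immunostained overnight at 4° C. and imaged by high-content microscopy. Phosphorylation quantified as mean circ-ring average intensity ratio; IC50 and Ymax from 4-parameter logistic fits.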

Test [2] concerns the target T1, His-GST-TVMV-hRIPK1(1-324) (Homo sapiens, UniProt Q13546).
T1 construct: The coding region of human RIPK1(1-324) flanked by NdeI site at 5′ end; made in house; host or cells: Spodoptera frugiperda (Sf9) insect cells, baculovirus
T1 sequence (Q13546 1-324): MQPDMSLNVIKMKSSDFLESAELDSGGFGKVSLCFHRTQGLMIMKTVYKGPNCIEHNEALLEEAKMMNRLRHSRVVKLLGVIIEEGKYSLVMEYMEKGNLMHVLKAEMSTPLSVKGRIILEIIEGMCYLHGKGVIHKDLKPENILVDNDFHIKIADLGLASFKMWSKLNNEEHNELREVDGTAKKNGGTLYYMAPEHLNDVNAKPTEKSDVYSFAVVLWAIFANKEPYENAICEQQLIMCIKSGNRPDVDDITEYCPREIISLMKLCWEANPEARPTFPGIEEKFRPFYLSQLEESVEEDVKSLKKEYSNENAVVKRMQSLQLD
As to the kind of experiment: RIPK1 HTRF Binding Assay.

[3] abbreviates: x marks IC50 class 20-200 nM, read-out: pMLKL cell activity 20-200 nM.
Where [4] appears, read: x marks IC50 class <20 nM, read-out: RIPK1 HTRF binding <20 nM.
The mark [5] stands for this setting: x marks IC50 class >200 nM, read-out: pMLKL cell activity >200 nM.
Where [6] appears, read: x marks IC50 class 20-200 nM, read-out: RIPK1 HTRF binding 20-200 nM.
Where [7] appears, read: x marks IC50 class <20 nM, read-out: pMLKL cell activity <20 nM.

Structures are written as SMILES. Read-outs that look alike come from different tables or passages of the source. Some results are limits rather than exact numbers.

For the molecule `Nc1nc2cc(-c3cncc(C(=O)NCc4ccccc4OC4CCCC4)c3)ccn2n1` [Example 43, 5-{2-Amino-[1,2,4]triazolo[1,5-a]pyridin-7-yl}-N-{[2-(cyclopentyloxy)phenyl]methyl}pyridine-3-carboxamide], the IC50 in test [1] (setting [3]) is 0.02 to 0.2 µM; in test [2] (setting [4]) it was less than 0.02 µM.
The matching figures for `COc1ncc(-c2ccn3nc(N)nc3c2)cc1C(=O)NCc1ccccc1OC1CCCCC1` [Example 44, 5-{2-Amino-[1,2,4]triazolo[1,5-a]pyridin-7-yl}-N-{[2-(cyclohexyloxy)phenyl]methyl}-2-methoxypyridine-3-carboxamide]: 0.02 to 0.2 µM and less than 0.02 µM.
For `COc1ncc(-c2ccn3nc(N)nc3c2)cc1C(=O)NCc1cccc(OC2CCCC2)c1` [Example 45, 5-{2-Amino-[1,2,4]triazolo[1,5-a]pyridin-7-yl}-N-{[3-(cyclopentyloxy)phenyl]methyl}-2-methoxypyridine-3-carboxamide], the IC50 in test [1] (setting [5]) is greater than 0.2 µM; in test [2] (setting [6]), 0.02 to 0.2 µM.
Taken in the same sequence, the figures for `COc1ncc(-c2ccn3nc(N)nc3c2)cc1C(=O)NCc1cccc(OCC2CCC2)c1` [Example 46, 5-{2-Amino-[1,2,4]triazolo[1,5-a]pyridin-7-yl}-N-{[3-(cyclobutylmethoxy)phenyl]methyl}-2-methoxypyridine-3-carboxamide] were greater than 0.2 µM and 0.02 to 0.2 µM.
Taken in the same sequence, the figures for `COc1ncc(-c2ccn3nc(N)nc3c2)cc1C(=O)NCc1cccc(OCC2CC2)c1` [Example 47, 5-{2-Amino-[1,2,4]triazolo[1,5-a]pyridin-7-yl}-N-{[3-(cyclopropylmethoxy)phenyl]methyl}-2-methoxypyridine-3-carboxamide] were greater than 0.2 µM and 0.02 to 0.2 µM.
In the case of `Nc1nc2cc(-c3cnc(N)c(C(=O)NCc4c(F)cccc4OC4CCCC4)c3)ccn2n1` [Example 48, 2-Amino-5-{2-amino-[1,2,4]triazolo[1,5-a]pyridin-7-yl}-N-{[2-(cyclopentyloxy)-6-fluorophenyl]methyl}pyridine-3-carboxamide], the IC50 in test [1] (setting [7]) and in test [2] (setting [4]) was less than 0.02 µM in each case.
As to `Nc1nc2cc(-c3cnc(N)c(C(=O)NCc4ccccc4OCC4CCC4)c3)ccn2n1` [Example 49, 2-Amino-5-{2-amino-[1,2,4]triazolo[1,5-a]pyridin-7-yl}-N-{[2-(cyclobutylmethoxy)phenyl]methyl}pyridine-3-carboxamide], the IC50 in test [1] (setting [3]) is 0.02 to 0.2 µM; in test [2] (setting [4]), less than 0.02 µM.
Taken in the same sequence, the figures for `COc1ncc(-c2ccn3nc(N)nc3c2)cc1C(=O)NCc1cccc(F)c1OC1CCCC1` [Example 50, 5-{2-Amino-[1,2,4]triazolo[1,5-a]pyridin-7-yl}-N-{[2-(cyclopentyloxy)-3-fluorophenyl]methyl}-2-methoxypyridine-3-carboxamide] were 0.02 to 0.2 µM and less than 0.02 µM.
Taken in the same sequence, the figures for `COc1ncc(-c2ccn3nc(N)nc3c2)cc1C(=O)NCc1ccc(F)cc1OC1CCCC1` [Example 51, 5-{2-Amino-[1,2,4]triazolo[1,5-a]pyridin-7-yl}-N-{[2-(cyclopentyloxy)-4-fluorophenyl]methyl}-2-methoxypyridine-3-carboxamide] were 0.02 to 0.2 µM and less than 0.02 µM.
On to `COc1ncc(-c2ccn3nc(N)nc3c2)cc1C(=O)NCc1c(F)cccc1OC1CCCC1` [Example 52, 5-{2-Amino-[1,2,4]triazolo[1,5-a]pyridin-7-yl}-N-{[2-(cyclopentyloxy)-6-fluorophenyl]methyl}-2-methoxypyridine-3-carboxamide], for which the IC50 in test [1] (setting [7]) and in test [2] (setting [4]) was less than 0.02 µM each time.
Take `Nc1nc2cc(-c3cnc(N)c(C(=O)NCc4c(F)cccc4OCC4CC4)c3)ccn2n1` [Example 53, 2-Amino-5-{2-amino-[1,2,4]triazolo[1,5-a]pyridin-7-yl}-N-{[2-(cyclopropylmethoxy)-6-fluorophenyl]methyl}pyridine-3-carboxamide]: the figures for the IC50 in test [1] (setting [3]) and in test [2] (setting [4]) were 0.02 to 0.2 µM and less than 0.02 µM, respectively.
The matching figures for `Nc1nc2cc(-c3cnc(N)c(C(=O)NCc4ccccc4OC4CCCC4)c3)ccn2n1` [Example 54, 2-Amino-5-{2-amino-[1,2,4]triazolo[1,5-a]pyridin-7-yl}-N-{[2-(cyclopentyloxy)phenyl]methyl}pyridine-3-carboxamide]: 0.02 to 0.2 µM and less than 0.02 µM.
The matching figures for `CC(C)Oc1ccccc1CNC(=O)c1cc(-c2ccn3nc(N)nc3c2)cnc1N` [Example 55, 2-Amino-5-{2-amino-[1,2,4]triazolo[1,5-a]pyridin-7-yl}-N-{[2-(propan-2-yloxy)phenyl]methyl}pyridine-3-carboxamide]: 0.02 to 0.2 µM and less than 0.02 µM.
Taken in the same sequence, the figures for `Nc1nc2cc(-c3cnc(N)c(C(=O)NCc4ccccc4OCC4CC4)c3)ccn2n1` [Example 56, 2-Amino-5-{2-amino-[1,2,4]triazolo[1,5-a]pyridin-7-yl}-N-{[2-(cyclopropylmethoxy)phenyl]methyl}pyridine-3-carboxamide] were 0.02 to 0.2 µM and less than 0.02 µM.
`CNc1ncc(-c2ccn3nc(N)nc3c2)cc1C(=O)NCc1ccccc1Sc1ccccc1CO` [Example 57]: the IC50 is 0.02 to 0.2 µM in test [1] (setting [3]) and less than 0.02 µM in test [2] (setting [4]).
Take `Nc1nc2cc(-c3cncc(C(=O)NCc4ccccc4Sc4ccccc4CO)c3)ccn2n1` [Example 59, 5-{2-Amino-[1,2,4]triazolo[1,5-a]pyridin-7-yl}-N-{[(2-[2-(hydroxymethyl)phenyl]sulfanyl}phenyl)methyl]pyridine-3-carboxamide]: the IC50 in test [1] (setting [3]) was 0.02 to 0.2 µM; in test [2] (setting [4]), less than 0.02 µM.
For `Nc1nc2cc(-c3cc(C(=O)NCc4ccccc4Sc4ccccc4CO)c4cc(F)ccc4n3)ccn2n1` [Example 60, 2-{2-Amino-[1,2,4]triazolo[1,5-a]pyridin-7-yl}-6-fluoro-N-[(2-{[2-(hydroxymethyl)phenyl]sulfanyl}phenyl)methyl]quinoline-4-carboxamide], the IC50 in test [1] (setting [5]) was greater than 0.2 µM; in test [2] (setting [6]), 0.02 to 0.2 µM.
In the case of `CCc1ncc(-c2ccn3nc(N)nc3c2)cc1C(=O)NCc1ccccc1Sc1ccccc1CO` [Example 61, 5-{2-Amino-[1,2,4]triazolo[1,5-a]pyridin-7-yl}-2-ethyl-N-[(2-{[2-(hydroxymethyl)phenyl]sulfanyl}phenyl)methyl]pyridine-3-carboxamide], the IC50 in test [1] (setting [7]) and in test [2] (setting [4]) was less than 0.02 µM throughout.
As to `Nc1nc2cc(-c3cnc(N)c(C(=O)NCc4ccccc4Sc4ccccc4CO)c3)ccn2n1` [Example 62, 2-Amino-5-{2-amino-[1,2,4]triazolo[1,5-a]pyridin-7-yl}-N-[(2-{[2-(hydroxymethyl)phenyl]sulfanyl}phenyl)methyl]pyridine-3-carboxamide], the values for the IC50 in test [1] (setting [3]) and in test [2] (setting [4]) were 0.02 to 0.2 µM and less than 0.02 µM, respectively.
Taken in the same sequence, the figures for `CCCOc1ncc(-c2ccn3nc(N)nc3c2)cc1C(=O)NCc1ccccc1Sc1ccccc1CO` [Example 63] were 0.02 to 0.2 µM and less than 0.02 µM.
Consider `CC(CCNC(=O)c1cc(-c2ccn3nc(N)nc3c2)cnc1N(C)C)c1ccccc1` (stereo not shown) [Example 64, 5-{2-Amino-[1,2,4]triazolo[1,5-a]pyridin-7-yl}-2-(dimethylamino)-N-(3-phenylbutyl)pyridine-3-carboxamide], for which the IC50 in test [1] (setting [3]) and in test [2] (setting [6]) was 0.02 to 0.2 µM throughout.
With `CC(CCNC(=O)c1cc(-c2ccn3nc(N)nc3c2)cnc1N)c1ccccc1` (stereo not shown) [Example 65, 2-Amino-5-{2-amino-[1,2,4]triazolo[1,5-a]pyridin-7-yl}-N-(3-phenylbutyl)pyridine-3-carboxamide], the IC50 in test [1] (setting [3]) was 0.02 to 0.2 µM; in test [2] (setting [4]), less than 0.02 µM.
As to `CCc1ncc(-c2ccn3nc(N)nc3c2)cc1C(=O)NCCC(C)c1ccccc1` (stereo not shown) [Example 66, 5-{2-Amino-[1,2,4]triazolo[1,5-a]pyridin-7-yl}-2-ethyl-N-(3-phenylbutyl)pyridine-3-carboxamide], the results for the IC50 in test [1] (setting [3]) and in test [2] (setting [4]) were 0.02 to 0.2 µM and less than 0.02 µM, respectively.
Take `CC(CCNC(=O)c1cc(-c2ccn3nc(N)nc3c2)nc2ccc(F)cc12)c1ccccc1` (stereo not shown) [Example 67, 2-{2-Amino-[1,2,4]triazolo[1,5-a]pyridin-7-yl}-6-fluoro-N-(3-phenylbutyl)quinoline-4-carboxamide]: the IC50 in test [1] (setting [3]) and in test [2] (setting [6]) was 0.02 to 0.2 µM in each case.
Take `Nc1nc2cc(-c3cc(C(=O)Nc4cnn(Cc5ccccc5)c4)c4cc(F)ccc4n3)ccn2n1` [Example 68, 2-{2-Amino-[1,2,4]triazolo[1,5-a]pyridin-7-yl}-N-(1-benzyl-1H-pyrazol-4-yl)-6-fluoroquinoline-4-carboxamide]: the IC50 in test [1] (setting [3]) and in test [2] (setting [6]) was 0.02 to 0.2 µM each time.
As to `CCCOc1ncc(-c2ccn3nc(N)nc3c2)cc1C(=O)NCCC(C)c1ccccc1` (stereo not shown) [Example 69, 5-{2-Amino-[1,2,4]triazolo[1,5-a]pyridin-7-yl}-N-(3-phenylbutyl)-2-propoxypyridine-3-carboxamide], the IC50 in test [1] (setting [5]) was greater than 0.2 µM; in test [2] (setting [4]) it was less than 0.02 µM.
